From patent publication US20220354836A1, “Equine Esomeprazole Formulations and Methods of Use” (priority 2019, published 2022)
“Also recorded” adds a separate entry of the source.

Legend:
[1] = Particle size distribution (Malvern MASTERSIZER 2000); format: physicochemical; conditions: sterilized drug substance from Shouguang Fukang Pharma Co.; average of three measurements
Protocol: Particle size distribution may be measured, for example, using a Malvern MASTERSIZER 2000 instrument. After 24 hours storage, a particle size distribution (PSD) was performed using a Malvern MASTERSIZER 2000. The measuring range of the instrument is 0.02-2000 μm, with refractive index dispersant 1.375—hexanes, obscuration range 5-20%, sample/background measurement time=1, 5000 sample/background measurement snaps, and manual stirring speed 2000 rpm.

[2] = Pharmacokinetics after multiple intramuscular doses to horses
Protocol: Eighteen adult horses were randomized into three equal treatment groups and assigned one of three doses: 2 mg/kg (1×), 6 mg/kg (3×), or 10 mg/kg (5×). Doses were administered intramuscularly. Each horse received the assigned dose three times, seven days apart. Blood samples were collected at 1, 2, 4, 6, 8, 12, 24, 36, 48, 72, 96, 120, 144 hrs after each dosing, then every 48 hours until Day 28. Esomeprazole was quantified by LC-MS/MS. Data were subjected to noncompartmental analysis.

SMILES | Median particle size [1] [μm] | Dose normalization of Cmax and area under the curve (kinetic linearity) ([2]; across 2, 6 and 10 mg/kg intramuscular) | Time for which drug was detectable ([2]; after the final dose in the 5× group (10 mg/kg intramuscular)) [h] | Mean half-life ([2]; horse, in vivo, im, 10 mg/kg) [h] | half-life ([2]; horse, in vivo, im, 10 mg/kg, Mean half-life) [h] | Tolerability ([2]; in vivo) | Absorption from the injection site ([2]; intramuscular, horses) | Injection site reaction ([2]; one horse in the 3× group (6 mg/kg intramuscular))
COc1ccc2[n-]c([S@@+]([O-])Cc3ncc(C)c(OC)c3C)nc2c1.COc1ccc2[n-]c([S@@+]([O-])Cc3ncc(C)c(OC)c3C)nc2c1.O.O.[Mg+2] [esomeprazole magnesium dihydrate] | 2.01 | – | – | – | – | – | – | –
COc1ccc2nc([S@@+]([O-])Cc3ncc(C)c(OC)c3C)[nH]c2c1 [esomeprazole sodium] | 18.84 | – | – | – | – | – | – | –
COc1ccc2nc([S@@+]([O-])Cc3ncc(C)c(OC)c3C)[nH]c2c1 [esomeprazole] | – | linear pharmacokinetics; also recorded: Linear kinetic properties were observed | 96 ± 26.29 | 12 to 24 | 11.6 to 24.5 | well tolerated | rapidly absorbed | A single mild, self-resolving, injection site reaction
